Test results published in PubChem BioAssay AID330 (DTP/NCI, 2004).
Inconclusive results and toxic doses are left out. Rule for the calls: active = survival T/C of 150% or more; inactive = T/C below 125% in these data.

Tested on: P388 leukemia ip, CD2F1 mice, survival T/C
Assay: NCI In Vivo Anticancer Drug Screen. Data for tumor model P388 Leukemia (intraperitoneal) in CD2F1 (CDF1) mice
Conditions: endpoint: median survival time, higher = longer survival
Procedure, shortened: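 Mice carrying the transplanted tumor received test compound or vehicle. Survival was recorded in each group, and the value is the treated-group measurement divided by that of the vehicle-treated control group.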

[1] = dose: 50.0 mg/kg/injection, schedule: Q01DX001 (ip), vehicle: Klucel (hydroxypropylcellulose) (HPC)
[2] = dose: 100.0 mg/kg/injection, schedule: Q01DX001 (ip), vehicle: Klucel (hydroxypropylcellulose) (HPC)
[3] = dose: 200.0 mg/kg/injection, schedule: Q01DX001 (ip), vehicle: Klucel (hydroxypropylcellulose) (HPC)

Measured: T/C

c1ccc2c(NCCCCCCNc3c4ccccc4nc4ccccc34)c3ccccc3nc2c1
active: dose: 2.16 mg/kg/injection, schedule: Q01DX009 (ip), vehicle: Klucel (hydroxypropylcellulose) (HPC) 155 % of control | dose: 2.16 mg/kg/injection, schedule: Q01DX009 (ip), vehicle: lactic acid 156 % of control | dose: 2.5 mg/kg/injection, schedule: Q## X009 (ip), vehicle: lactic acid 152 % of control | dose: 2.59 mg/kg/injection, schedule: Q01DX009 (ip), vehicle: lactic acid 150 % of control | dose: 3.6 mg/kg/injection, schedule: Q01DX009 (ip), vehicle: Klucel (hydroxypropylcellulose) (HPC) 163 % of control | dose: 3.6 mg/kg/injection, schedule: Q01DX009 (ip), vehicle: lactic acid 154 % of control | dose: 4.32 mg/kg/injection, schedule: Q01DX009 (ip), vehicle: lactic acid 150 % of control | dose: 5.4 mg/kg/injection, schedule: Q01DX009 (ip), vehicle: other 156 % of control | dose: 6.0 mg/kg/injection, schedule: Q01DX009 (ip), vehicle: Klucel (hydroxypropylcellulose) (HPC) 180 % of control | dose: 7.2 mg/kg/injection, schedule: Q01DX009 (ip), vehicle: Klucel (hydroxypropylcellulose) (HPC) 157 % of control | dose: 7.2 mg/kg/injection, schedule: Q01DX009 (ip), vehicle: lactic acid 150 % of control | dose: 9.0 mg/kg/injection, schedule: Q01DX009 (ip), vehicle: other 165 % of control | dose: 10.0 mg/kg/injection, schedule: Q01DX009 (ip), vehicle: Klucel (hydroxypropylcellulose) (HPC) 173 % of control | dose: 10.0 mg/kg/injection, schedule: Q01DX009 (ip), vehicle: other 150 % of control | dose: 10.0 mg/kg/injection, schedule: Q01DX009 (ip), vehicle: water 150 % of control | dose: 12.0 mg/kg/injection, schedule: Q01DX009 (ip), vehicle: Klucel (hydroxypropylcellulose) (HPC) 154 % of control | dose: 15.0 mg/kg/injection, schedule: Q01DX009 (ip), vehicle: other 168 % of control
inactive: dose: 0.62 mg/kg/injection, schedule: Q## X009 (ip), vehicle: lactic acid 124 % of control | dose: 1.25 mg/kg/injection, schedule: Q01DX009 (ip), vehicle: Klucel (hydroxypropylcellulose) (HPC) 119 % of control | dose: 1.25 mg/kg/injection, schedule: Q01DX009 (ip), vehicle: water 121 % of control | dose: 1.25 mg/kg/injection, schedule: Q01DX009 (oral), vehicle: Klucel (hydroxypropylcellulose) (HPC) 99 % of control | dose: 2.5 mg/kg/injection, schedule: Q01DX009 (oral), vehicle: Klucel (hydroxypropylcellulose) (HPC) 106 % of control | dose: 5.0 mg/kg/injection, schedule: Q01DX009 (oral), vehicle: Klucel (hydroxypropylcellulose) (HPC) 93 % of control | dose: 7.2 mg/kg/injection, schedule: Q04DX003 (ip), vehicle: other 118 % of control | dose: 7.78 mg/kg/injection, schedule: Q01DX003 (ip), vehicle: water 101 % of control | dose: 7.78 mg/kg/injection, schedule: Q01DX009 (oral), vehicle: Klucel (hydroxypropylcellulose) (HPC) 101 % of control | dose: 7.78 mg/kg/injection, schedule: Q01DX009 (oral), vehicle: lactic acid 111 % of control | dose: 10.0 mg/kg/injection, schedule: Q01DX009 (oral), vehicle: Klucel (hydroxypropylcellulose) (HPC) 97 % of control | dose: 12.0 mg/kg/injection, schedule: Q04DX003 (ip), vehicle: other 95 % of control | dose: 13.0 mg/kg/injection, schedule: Q01DX003 (ip), vehicle: water 101 % of control | dose: 13.0 mg/kg/injection, schedule: Q01DX009 (oral), vehicle: Klucel (hydroxypropylcellulose) (HPC) 100 % of control | dose: 13.0 mg/kg/injection, schedule: Q01DX009 (oral), vehicle: lactic acid 104 % of control | dose: 20.0 mg/kg/injection, schedule: Q01DX009 (oral), vehicle: Klucel (hydroxypropylcellulose) (HPC) 108 % of control | dose: 21.6 mg/kg/injection, schedule: Q01DX009 (oral), vehicle: Klucel (hydroxypropylcellulose) (HPC) 100 % of control | dose: 21.6 mg/kg/injection, schedule: Q01DX009 (oral), vehicle: lactic acid 96 % of control | dose: 36.0 mg/kg/injection, schedule: Q01DX009 (oral), vehicle: Klucel (hydroxypropylcellulose) (HPC) 104 % of control | dose: 36.0 mg/kg/injection, schedule: Q01DX009 (oral), vehicle: lactic acid 96 % of control | dose: 40.0 mg/kg/injection, schedule: Q01DX009 (oral), vehicle: Klucel (hydroxypropylcellulose) (HPC) 93 % of control | dose: 60.0 mg/kg/injection, schedule: Q01DX009 (oral), vehicle: Klucel (hydroxypropylcellulose) (HPC) 96 % of control | dose: 60.0 mg/kg/injection, schedule: Q01DX009 (oral), vehicle: lactic acid 93 % of control | dose: 80.0 mg/kg/injection, schedule: Q01DX009 (oral), vehicle: Klucel (hydroxypropylcellulose) (HPC) 97 % of control | dose: 100.0 mg/kg/injection, schedule: Q01DX009 (oral), vehicle: Klucel (hydroxypropylcellulose) (HPC) 95 % of control | dose: 100.0 mg/kg/injection, schedule: Q01DX009 (oral), vehicle: lactic acid 99 % of control | dose: 167.0 mg/kg/injection, schedule: Q01DX009 (oral), vehicle: Klucel (hydroxypropylcellulose) (HPC) 108 % of control | dose: 167.0 mg/kg/injection, schedule: Q01DX009 (oral), vehicle: lactic acid 103 % of control

CCOC(CC#CC(=O)N(C)C)OCC
inactive: dose: 60.0 mg/kg/injection, schedule: Q01DX005 (ip), vehicle: saline 100 % of control | dose: 120.0 mg/kg/injection, schedule: Q01DX005 (ip), vehicle: saline 107 % of control | dose: 240.0 mg/kg/injection, schedule: Q01DX005 (ip), vehicle: saline 101 % of control

CCC[CH2][Sn]([CH2]CCC)([S]C(C)=O)[S]C(C)=O
inactive: dose: 12.5 mg/kg/injection, schedule: Q01DX001 (ip), vehicle: Klucel (hydroxypropylcellulose) (HPC) 113 % of control | dose: 25.0 mg/kg/injection, schedule: Q01DX001 (ip), vehicle: Klucel (hydroxypropylcellulose) (HPC) 105 % of control | [1] 114 % of control

C(=Nc1cccnc1)c1ccc(C=Nc2cccnc2)cc1
inactive: dose: 50.0 mg/kg/injection, schedule: Q01DX009 (ip), vehicle: saline 108 % of control | dose: 100.0 mg/kg/injection, schedule: Q01DX009 (ip), vehicle: saline 104 % of control

CC1C(=O)C(C)C(c2ccc(Cl)cc2)OC1c1ccccc1 (configuration not stated)
inactive: [1] 94 % of control | [2] 95 % of control | [3] 105 % of control

CCC(=O)[O-].CCC(=O)[O-].CCC(=O)[O-].CCC(=O)[O-].O=S(=O)(O)O.[Re].[Re]
inactive: dose: 72.0 mg/kg/injection, schedule: Q01DX009 (ip), vehicle: saline 107 % of control | dose: 103.0 mg/kg/injection, schedule: Q01DX009 (ip), vehicle: saline 100 % of control | dose: 147.0 mg/kg/injection, schedule: Q01DX009 (ip), vehicle: saline 102 % of control | dose: 171.5 mg/kg/injection, schedule: Q01DX009 (ip), vehicle: suspension in saline 109 % of control | dose: 210.0 mg/kg/injection, schedule: Q01DX009 (ip), vehicle: saline 108 % of control | dose: 245.0 mg/kg/injection, schedule: Q01DX009 (ip), vehicle: suspension in saline 120 % of control | dose: 300.0 mg/kg/injection, schedule: Q01DX009 (ip), vehicle: saline 91 % of control

COc1ccc2c(=O)c(-c3ccc(OC)c(OC)c3)c(C)oc2c1
inactive: dose: 60.0 mg/kg/injection, schedule: Q01DX005 (ip), vehicle: saline with Tween-80 94 % of control | dose: 120.0 mg/kg/injection, schedule: Q01DX005 (ip), vehicle: saline with Tween-80 91 % of control | dose: 240.0 mg/kg/injection, schedule: Q01DX005 (ip), vehicle: saline with Tween-80 86 % of control

OC1CC2CCCCC2CC1C1CCCCC1 (configuration not stated)
inactive: [2] 90 % of control | [3] 91 % of control | dose: 400.0 mg/kg/injection, schedule: Q01DX001 (ip), vehicle: Klucel (hydroxypropylcellulose) (HPC) 94 % of control

c1ccc(C23OOC(c4ccccc4)(c4ccccc42)c2ccccc23)cc1
inactive: dose: 5.0 mg/kg/injection, schedule: Q01DX001 (ip), vehicle: Klucel (hydroxypropylcellulose) (HPC) 96 % of control | dose: 10.0 mg/kg/injection, schedule: Q01DX001 (ip), vehicle: Klucel (hydroxypropylcellulose) (HPC) 96 % of control | dose: 20.0 mg/kg/injection, schedule: Q01DX001 (ip), vehicle: Klucel (hydroxypropylcellulose) (HPC) 89 % of control

O=C1c2ccccc2-c2cc(O)c3c4c(O)cc5c6c(ccc(c7ccc1c2c73)c64)C(=O)c1ccccc1-5
inactive: dose: 50.0 mg/kg/injection, schedule: Q01DX005 (ip), vehicle: saline with Tween-80 95 % of control | dose: 100.0 mg/kg/injection, schedule: Q01DX005 (ip), vehicle: saline with Tween-80 91 % of control | dose: 200.0 mg/kg/injection, schedule: Q01DX005 (ip), vehicle: saline with Tween-80 89 % of control

CC(=O)OC1OC(=O)C(C)(C(C)=O)C1C (configuration not stated)
inactive: dose: 12.5 mg/kg/injection, schedule: Q01DX005 (ip), vehicle: distilled water + alcohol 100 % of control | dose: 25.0 mg/kg/injection, schedule: Q01DX005 (ip), vehicle: distilled water + alcohol 100 % of control
